Measured values as given in patent US4190642A, “Ocular therapeutic system for dispensing a medication formulation” (Alza Corporation, priority 1979, dated 1980).
Counter-ions that a name gives are not always drawn. Like-named read-outs stand apart in the source and are kept apart here.

Columns and labels:
[1] = osmotic pressure (vapor pressure osmometer); type: physicochemical
Text: System 10 houses in depot 14 from about 1 to 40 weight percent of pilocarpine solute and from 1 to 25 weight percent of epinephrine solute, with the remaining weight percent of system 10 polymer 12. […] Generally, the pilocarpine solute and the epinephrine solute will have a particle size of about 0.1 to 100 microns, and a presently preferred particle size of about 0.5 to 20 microns. […] This application and the copending application are both assigned to the Alza Corporation of Palo Alto, California.
The osmotic pressure, ATM, of the above solutes can be measured in a commercially available osmometer that measures the vapor pressure difference between pure water and the solution containing a solute to be analyzed, and according to standard thermodynamic principles, the vapor pressure ratio is converted into osmotic pressure difference.

solubility in water = experiment: solubility in water
Text: System 10 houses in depot 14 from about 1 to 40 weight percent of pilocarpine solute and from 1 to 25 weight percent of epinephrine solute, with the remaining weight percent of system 10 polymer 12. […] Generally, the pilocarpine solute and the epinephrine solute will have a particle size of about 0.1 to 100 microns, and a presently preferred particle size of about 0.5 to 20 microns. The osmotic delivery device consisting of sole drug solute of a specific particle size dispersed in a polymer is the invention of Michaels and Guillod as disclosed and claimed in copending U.S. Patent Application Ser. No. 855,605, filed on Nov. 29, 1977. This application and the copending application are both assigned to the Alza Corporation of Palo Alto, California.
Next, the contents of the bowl are removed, cut into 3 mm ×3 mm pieces with a multi-blade strip die and the strips fed to the hopper of an extruder. The pieces have a residence time of 5 minutes in the extruder with the screw of the extruder rotating at 20 rpm. A film is extruded through a 12 mil opening at the end of the extruder and punched into 13.5×5.8 mm inserts.

| Compound | osmotic pressure [1] [atmospheres] | osmotic pressure ([1]; Example 5) [ATM] | solubility (solubility in water; water, solubility in water, 37° C.) [mg/mL] | solubility (solubility in water; water, solubility, water solution) [mg/mL] | osmotic pressure ([1]; hydrochloride) [atmospheres] | solubility (solubility in water; water solution, hydrochloride) | solubility (solubility in water; water) | solubility (solubility in water; water, solubility in water) [mg/mL] |
| --- | --- | --- | --- | --- | --- | --- | --- | --- |
| CNC[C@H](O)c1ccc(O)c(O)c1 [epinephrine bitartrate] | 78.5 | 78.5 | 670 | 670 |  |  |  |  |
| CNC[C@H](O)c1ccc(O)c(O)c1 [epinephrine hydrochloride] |  |  |  |  | 185 | 80 grams in 100 ml of water solution |  |  |
| CC[C@@H]1C(=O)OC[C@@H]1Cc1cncn1C [pilocarpine hydrochloride] |  |  |  |  | 300 |  | 80 grams in 100 ml of water solution |  |
| CC[C@@H]1C(=O)OC[C@@H]1Cc1cncn1C [pilocarpine nitrate] | 37 | 37 |  |  |  |  | 27 grams in 100 ml of water solution | 270 |
